Where two headings read alike, the source gives them in different places. One block for each compound: values may come before it.
What was measured:
[1] = humans, cited from earlier work
[2] = Ketoconazole concentration in plasma and ocular tissues after single topical ocular instillation; assay type: in vivo, Sprague Dawley rats; conditions: for concentration at 5 min / concentration at 120 min / concentration at 30 min: Sprague Dawley, rat, topical; for concentration at 120 min: 120 min post-dose; for concentration at 30 min: 30 min post-dose
Method: The mixture was stirred at 40 °C. Subsequently, 0.040 mL of 1 M hydrochloric acid was added, and the mixture was stirred at 40 °C until it was completely dissolved. 0.250 mL of hydroxypropyl beta-cyclodextrin (HPβCD) was added and vortexed and stirred at 40 °C until clear. 0.005 mL of 1 M sodium hydroxide was added to adjust the pH to 6.5-7.0 while stirring magnetically at 40 °C, and 0.038 mL of water was added, vortexed, and stirred at 40 °C until clear.
Each tissue was then homogenized using an Ultrasonic Cell Crusher for 5 seconds. The cornea and retina homogenates were sonicated for 10 min, while the vitreous was sonicated for 30 min at 0 °C prior to bioanalysis. The ocular tissue homogenates were stored in a -80 °C freezer before bioanalysis.
All samples underwent protein precipitation for pharmacokinetic analysis. Plasma and three types of tissue homogenate samples (50 μL each) were treated with 5 μL of methanol and then quenched with a 200 μL methanol and acetonitrile mixture (1:1, v/v) containing 50 ng/mL terfenadine as an internal standard (ISTD). After vortexing for 1 min and centrifuging at 4000 rpm for 15 min, the supernatant was transferred and diluted 10-fold with a methanol/water solution (1:1, v/v, containing 0.1 % formic acid) for LC-MS/MS analysis. The working solution was prepared with a concentration range of 50.0 to 100,000 ng/mL.
The quantitative sample analysis was performed on a Shimadzu LC-20AD (Shimadzu, Japan) - API 4000 mass spectrometer (SCIEX, Canada).

[3] = in vivo
Method: (§1) Nine rats were randomly divided into three groups and their body weights were recorded from 254 to 281 g. […] Rats were sacrificed at 5, 30 and 120 min post-dose (n = 3 per time point). Cornea, retina, and vitreous humour samples were collected, washed in saline three times and weighed, while blood samples were taken from the heart puncture. Tissue samples were initially stored on dry ice, while the blood samples were centrifuged at 4 °C and 6000 rpm for 10 min. Subsequently, the plasma samples were prepared and also stored on dry ice. Ultimately, all samples were cryopreserved in a -80 °C freezer after harvest.
(§2) Rat plasma (400 RL, 44.4 LL/rat at each time point) was pooled from 3-time points utilizing the equal volume method and subsequently precipitated with acetonitrile containing 0.1 % formic acid at a ratio of 1:3. Homogenate samples of rat cornea, retina, and vitreous humour (600 L, 66.7 LL /rat) were pooled from three time points individually utilizing the equal volume and transferred into a 15 mL centrifuge tube and subjected to precipitation with acetonitrile containing 0.1 % formic acid at the same ratio of 1:3. Following centrifugation, the supernatant was evaporated under a stream of nitrogen gas. The residues from plasma and rat retina were reconstituted with 150 L of 10 % acetonitrile in H2O (with 0.1 % formic acid), while the residues from the rat cornea and vitreous humour were reconstituted with 100 L of 10 % acetonitrile in H2O (0.1 % formic acid). Four types of blank samples were processed in a similar manner. Ultimately, 10,L samples of each tissue were injected for analysis using the Ultimate 3000-Q-Exactive Plus system.
(§3) Mobile phase A consisted of water containing 0.1 % formic acid, while mobile phase B consisted of acetonitrile with 0.1 % formic acid. […] Mass scanning was performed on the Q-Exactive Plus using positive-ion full MS/dd-MS2 mode with a range from m/z 80 to 900. The collision energy was set at 30, 40 and 50 eV. The mass resolution was set as 70,000 for full MS, and 17,500 for dd-MS2 scans, and the mass error limit was set as 5.0 ppm.

[4] = Metabolite identification and profiling in pooled rat plasma, cornea, retina and vitreous humour after eye drop administration; conditions: for Relative peak area abundance, COR: pooled rat cornea homogenate (5, 30, 120 min); for Relative peak area abundance, VH: pooled rat vitreous humour homogenate (5, 30, 120 min); for Relative peak area abundance, PLA: pooled rat plasma (5, 30, 120 min)
Method: as §1, §2, §3

[5] = plasma, 300 μg per rat, rat plasma, read-out: mean concentration in plasma
[6] = selected ion chromatographic peak areas

- Relative peak area abundance, COR [4, 6]: 1.1%
- Relative peak area abundance, PLA [4, 6]: 0.1%
- Relative peak area abundance, RET ([4]; pooled rat retina homogenate (5, 30, 120 min), selected ion chromatographic peak areas): 1.2%
- Relative peak area abundance, VH [4, 6]: 0.6%
- abundance of dominant metabolite in cornea, retina ([4]; rat cornea, retina): 1.1-1.2%
Compound: OC[C@H]1CO[C@](Cn2ccnc2)(c2ccc(Cl)cc2Cl)O1 [Metabolite M2]

- Relative peak area abundance, COR [4, 6]: 0.1%
- Relative peak area abundance, PLA [4, 6]: 0.6%
Compound: CC(=O)N1CCN(c2ccc(OC[C@H]3CO[C@](CN)(c4ccc(Cl)cc4Cl)O3)cc2)CC1 [Metabolite M6]

Second part, the compound before the results:

Compound: CC(=O)N1CCN(c2ccc(OCC3COC(Cn4ccnc4)(c4ccc(Cl)cc4Cl)O3)cc2)CC1 (centres unmarked) [Ketoconazole]
- biphasic elimination, thereafter ([1]; after the first 10 h): 8 h
- biphasic elimination, during the first 10 h ([1]; first 10 h): 2 h
- time to maximum plasma concentration [1]: 1 to 2 h
- concentration at 5 min ([2]; cornea, 150 μg per eye, rat cornea, left eye, 5 min post-dose, 150 μg per eye, read-out: mean concentration in cornea, left eye): 416000 ng/g
- concentration at 5 min ([2]; cornea, 150 μg per eye, rat cornea, right eye, 5 min post-dose, 150 μg per eye, read-out: mean concentration in cornea, right eye): 430000 ng/g
- concentration at 5 min ([2]; cornea, 300 μg per rat, mean ketoconazole concentration in cornea, rat cornea, 5 min post-dose, 300 μg/rat topical ocular): 423000 ng/g
- concentration at 120 min ([2]; cornea, 300 μg per rat, mean ketoconazole concentration in cornea, rat cornea, mean of left and right eye): 8360 ng/g
- concentration at 30 min ([2]; cornea, 300 μg per rat, rat cornea, mean of left and right eye, read-out: mean concentration in cornea): 113000 ng/g
- concentration at 120 min ([2]; plasma, 300 μg per rat, mean ketoconazole concentration in plasma, rat plasma, 300 μg/rat topical ocular): 38.4 ng/mL
- concentration at 5 min ([2]; plasma, 300 μg per rat, rat plasma, 5 min post-dose, read-out: mean concentration in plasma): 445 ng/mL
- concentration at 30 min [2, 5]: 303 ng/mL
- concentration at 120 min [2, 5]: 38.4 ng/mL
- concentration at 5 min ([2]; retina, 150 μg per eye, rat retina, left eye, 5 min post-dose, 150 μg per eye, read-out: mean concentration in retina, left eye): 439 ng/g
- concentration at 5 min ([2]; retina, 150 μg per eye, rat retina, right eye, 5 min post-dose, 150 μg per eye, read-out: mean concentration in retina, right eye): 552 ng/g
- concentration at 5 min ([2]; retina, 300 μg per rat, mean ketoconazole concentration in retina, rat retina, 5 min post-dose, 300 μg/rat topical ocular): 4960 ng/g
- concentration at 120 min ([2]; retina, 300 μg per rat, mean ketoconazole concentration in retina, rat retina, mean of left and right eye): 94.4 ng/g
- concentration at 30 min ([2]; retina, 300 μg per rat, rat retina, mean of left and right eye, read-out: mean concentration in retina): 1470 ng/g
- concentration at 5 min ([2]; vitreous humour, 150 μg per eye, rat vitreous humour, left eye, 5 min post-dose, 150 μg per eye, read-out: mean concentration in vitreous humour, left eye): 1120 ng/g
- concentration at 5 min ([2]; vitreous humour, 150 μg per eye, rat vitreous humour, right eye, 5 min post-dose, 150 μg per eye, read-out: mean concentration in vitreous humour, right eye): 1180 ng/g
- concentration at 5 min ([2]; vitreous humour, 300 μg per rat, mean ketoconazole concentration in vitreous humour, rat vitreous humour, 5 min post-dose, 300 μg/rat topical ocular): 1190 ng/g
- concentration at 120 min ([2]; vitreous humour, 300 μg per rat, mean ketoconazole concentration in vitreous humour, rat vitreous humour, mean of left and right eye): 116 ng/g
- concentration at 30 min ([2]; vitreous humour, 300 μg per rat, rat vitreous humour, mean of left and right eye, read-out: mean concentration in vitreous humour): 713 ng/g
- mean peak plasma concentration ([2]; rat plasma, 5 min post-dose, 300 μg/rat topical ocular): 445 ng/mL

Compound: Clc1ccc([C@@]2(Cn3ccnc3)OC[C@H](COc3ccc(N4CCNCC4)cc3)O2)c(Cl)c1 [M4 (DAK), N-deacetyl ketoconazole]
- detection in rat plasma ([3]; Sprague Dawley): No N-deacetyl ketoconazole (M4) was found
- Relative peak area abundance, COR ([3]; Sprague Dawley, rat): 0.2%
- detection in rat plasma [3]: not detected

Compound: CC(=O)N1CCN(c2ccc(OC[C@H]3CO[C@](Cn4ccnc4)(c4ccc(Cl)cc4Cl)O3)cc2)CC1O (some centres unmarked) [Metabolite M1]
- Relative peak area abundance, COR [4, 6]: D (detected in trace amount (the relative abundance was less than 0.1 %))
- Relative peak area abundance, VH [4, 6]: D (detected in trace amount (the relative abundance was less than 0.1 %))
